Results as given in US8470548B2, “Diagnosis of depression” (Intra-Cellular Therapies, Inc., priority 2006, dated 2013).
Read-outs that look alike come from different tables or passages of the source. Values belong to the compound of their own block, whether it stands above or below them.

Assays:
p11 mRNA = settings: mice, 14 day treatment, once daily i.p., killed 1 hour after last injection
Method: For some experiments, brains from p11 KO mice and their wild-type counterparts are used. […] Animals are killed 1 hour after the last injection.
In situ hybridization probes are made by PCR amplification of nucleotides 1159-1420 of the coding sequence of the rat 5-HT1B receptor gene, nucleotides 1-293 of the coding sequence of the mouse or human p11 genes and nucleotides 1-287 of the coding sequence of the rat p11 gene, respectively. The different PCR fragments are subcloned into the pCRII-TOPO vector. With the exception of the studies on human tissue, 12-μm-thick cryostat sections are made for all studies. Sections are hybridized with [□^−35S]UTP-labeled riboprobe repared by in vitro transcription from cDNA corresponding to the rat 5-HT1B receptor gene or mouse, rat or human p11 gene as previously described (S5). After hybridization, the sections are exposed to Biomax MR film for 7 to 24 days and analyzed using the NIH Image 1.63 software. Unless indicated, analyses are made in the prelimbic/anterior cingulate cortex. Some sections are dipped into Ilford K5 emulsion for cellular analysis. After 8 weeks, the sections are developed, Nissl-stained and mounted.

AMPA receptors = assay: Electrophysiology, fEPSP/PS in nucleus accumbens slices, CNQX; design: species or system mice; settings: 15 min after CNQX
Method: (§1) Male p11 KO and wild-type mice (4-7 weeks old) are decapitated under fluorothane anesthesia. Their brains are rapidly removed and coronal brain slices (400 μm thick), containing the nucleus accumbens, are prepared with a microslicer. Slices are incubated, for at least 1 h, at 32° C. in oxygenated (95% O2+5% CO2) artificial cerebrospinal fluid (aCSF) containing (in mM): 126 NaCl, 2.5 KCl, 1.2 NaH2PO4, 1.3 MgCl2, 2.4 CaCl2, 10 glucose and 26 NaHCO3, pH 7.4. Slices are transferred to a recording chamber mounted on an upright microscope and are continuously perfused with oxygenated aCSF at 28° C. Extracellular field potentials are recorded using a glass micropipette filled with aCSF positioned on the slice surface in the nucleus accumbens. Signals are amplified 500 times via an Axopatch 200B amplifier acquired at 10 kHz, filtered at 2 kHz and recorded on a Computer using acquisition and pClamp9 data analysis software. Synaptic responses are evoked with a concentric bipolar stimulating electrode placed near the recording electrode on the surface of the slice. […] Single stimuli (0.1 ms duration) are applied every 15 sec at an intensity yielding 50-70% maximal response as assessed by a stimulus/response curve established for each slice examined by measuring the amplitude of the field potential evoked by increasing stimulus intensities. […] Numerical values are expressed as means […]SEM. […]

5-HT1B receptor [1] = target: T1, 5-HT1B receptor (Homo sapiens, UniProt P28222); assay: cAMP measurements in COS 7 cells; format: cell-based
T1 construct: V5 (C); expressed in transfected cells; host or cells: COS 7
Method: COS 7 cells grown in DMEM medium are transfected with 5-HT1B receptors and/or p11. Thirty six hours later the cells are pretreated with theophylline (5 mM) and pargyline (10 μM) for 15 min. Vehicle or forskolin (10 μM) with or without serotonin (10 μM), is then added for another 15 minutes. At the end of the treatment, the drug-containing medium is removed, the wells rinsed in PBS and the cells harvested. cAMP formation is quantitated by a direct cAMP enzyme immunoassay kit according to the manufacturers instructions.

[2] = test system: phospho-Thr202/Tyr204-ERK1/2; assay: Western blotting of phosphorylated ERK1/2 in primary cortical cultures; format: cell-based; settings: primary cortical cultures from p11 KO mice, 10 μM, 15 minutes
Method: Cortices are removed from E18 mice generated from WT×WT or p11KO×p11KO breedings, trypsinized (0.25%), dissociated by trituration and plated onto poly-L-lysine (1 mg/ml) coated six-well plates. The cultures (500,000 cells/ml) are grown in medium containing DMEM with 5% fetal bovine serum, 4 mM L-glutamine, B-27 nutrient supplement, penicillin (5 U/ml), and streptomycin (5 μg/ml). After two weeks, the cultures are treated with vehicle, serotonin (10 μM) or anpirtoline (10 μM) for 15 minutes. At the end of the treatment, the drug-containing medium is removed, the wells rinsed in ice-cold PBS, the neurons removed by a cell scraper and frozen in liquid nitrogen. Frozen cell samples are sonicated in 1% SDS and boiled for 10 min. Small aliquots of the homogenate are retained for protein determination by the bicinchoninic acid protein assay method. Equal amounts of protein are processed by using 10% acrylamide gels, as described (S10). Immunoblotting is carried out with a phosphorylation-state-specific antibody against phospho-Thr202/Tyr204-ERK1/2 or an antibody that is not phosphorylation-state-specific against total ERK1/2. Antibody binding is detected by enhanced chemiluminescence and quantified by densitometry, using National Institutes of Health IMAGE 1.63 software. The level of the phosphorylated form of ERK1/2 is normalized to its total level. All data are presented as normalized levels.

5-HT1B receptor [3] = target: T2, 5-HT1B receptor (Mus musculus, UniProt P28334); assay: Electrophysiology, fEPSP/PS in nucleus accumbens slices, serotonin; settings: slices from WT mice; serotonin 50 μM in the presence of 10 μM fluoxetine
Method: as §1

5-HT1B receptor [4] = target: T2, 5-HT1B receptor; assay: Quantitative receptor autoradiography, [125I]cyanopindolol binding and serotonin displacement; design: Cryostat sections (12 μm thick) are made from p11 KO and wild-type mice; from tissue; host or cells: mouse brain cryostat sections (globus pallidus, substantia nigra); wild-type, p11 KO and p11 transgenic mice; species or system mice
Method: Cryostat sections (12 μm thick) are made from p11 KO and wild-type mice. 5-HT1B receptors are detected by incubating the sections in 170 mM Tris/150 mM NaCl pH 7.4 (25° C.) containing the antagonist [^125I]cyanopindolol (0.3, 1, 3, 10, 30, 100 pM; 2200 Ci/mmol), 100 nM 8-OH-DPAT as a 5-HT1A blocker, and 30 μM isoproterenol, as β-adrenergic receptor blocker, for two hours (S9). Non-specific binding is determined by measurements in the presence of 100 μM serotonin. In displacement experiments, increasing concentrations of serotonin (0, 0.3, 1, 3, 10, 30, 100, 300, 1000, 10000 nM) are incubated with 10 pM [^125I]cyanopindolol as described above. […] At the end of all autoradiographic experiments, sections are rinsed 2×5 min in their corresponding cold binding buffers, dipped in distilled water at 4° C. and dried under cold air. The sections are apposed to Biomax MR films for 3-5 days ([^125I]cyanopindolol) or 4-10 weeks ([^3H]GR125743, [^3H]8-OHDPAT, ^3H]SCH23390, [^3H]raclopride) together with ^[125I] or [^3H] microscales. Optical density measurements are obtained in several brain regions with the NIH Image 1.63 image analysis system. Specific binding is calculated by digital subtraction of nonspecific labeling from total binding. Standard curves generated from [^3H] or [^125I] microscales are used to convert optical densities into femtomoles per milligram of protein. Data obtained from saturation and displacement experiments are analyzed using non-linear regression equations.

5-HT1A receptor = target: T3, 5-HT1A receptor (Mus musculus, UniProt Q64264); assay: [35S]GTPγS binding in response to 5-HT1A receptor stimulation; format: biochemical, mice; settings: 50 μM agonist
T3 construct: Fresh cryostat sections (12 μm) from wild-type, p11 KO and p11 transgenic mice; from tissue; host or cells: mouse brain cryostat sections
T3 sequence (Q64264 1-421): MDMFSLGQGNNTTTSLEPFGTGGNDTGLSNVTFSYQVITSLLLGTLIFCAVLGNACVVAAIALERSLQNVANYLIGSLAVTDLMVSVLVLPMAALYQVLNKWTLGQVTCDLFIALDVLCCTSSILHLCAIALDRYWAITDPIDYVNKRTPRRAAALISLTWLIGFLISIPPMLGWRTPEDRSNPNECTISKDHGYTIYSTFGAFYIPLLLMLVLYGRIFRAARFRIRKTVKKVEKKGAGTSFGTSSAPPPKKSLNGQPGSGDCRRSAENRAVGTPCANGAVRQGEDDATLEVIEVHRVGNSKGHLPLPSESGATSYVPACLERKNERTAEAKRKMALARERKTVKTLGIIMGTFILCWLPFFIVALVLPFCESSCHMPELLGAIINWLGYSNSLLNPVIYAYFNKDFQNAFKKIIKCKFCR
Method: (§2) Fresh cryostat sections (12 μm) from wild-type, p11 KO and p11 transgenic mice are preincubated for 30 min in Tris-HCl 50 mM (pH 7.4) supplemented with 100 mM NaCl, […] 3 mM MgCl2, 0.2 mM EGTA, 2 mM GDP and 1 U/ml adenosine deaminase to remove endogenous adenosine. The sections are thereafter incubated for two hours at 25° C. in the same solution containing 40 pM [^35S]GTP S, with (stimulation condition) or without (basal condition) 50 μM of the 5-HT1A receptor agonist, 8-OH-DPAT, or the 5-HT1B receptor agonist, anpirtoline. Non-specific labeling (background) is determined on autoradiographs from adjacent sections incubated with 10 μM of unlabeled GTP S. Sections are rinsed twice (3 min each) in 50 mM Tris-HCl buffer, once (30 sec) in distilled water to remove the buffer salts, and air-dried. The autoradiographs are obtained by 2-4 days exposure on Biomax MR film. Optical density measurements are obtained in several brain regions with the NIH Image 1.63 image analysis system.

p11 = p11 expression in PBMC of monkeys receiving fluoxetine; format: in vivo
immobility = assay: Tail suspension test; format: in vivo; settings: p11 KO mice compared with wild-type mice after acute treatment, 15 minutes postinjection
Method: The tail suspension test, a model of antidepressant-like activity, is carried out as described (S11) and is a modified version of that validated for C57B16 (S12) and NMRI mice (S13). Mice are individually suspended by the tail to a horizontal bar (distance from floor is 35 cm) using adhesive tape (distance from tip of tail is 2 cm). […] A 6-min test session is videotaped and scored by an observer who is unaware of the genotype. The parameter recorded is the number of seconds spent immobile. In experiments with anpirtoline (5 mg/kg) and imipramine (10 mg/kg), animals are tested 15 minutes postinjection.

phospho-Ser9-synapsin I = assay: Western blotting of phosphorylated synapsin I in brain slices; format: cell-based; settings: striatal slices from p11 KO mice, 50 μM, 2 min
Method: Slices (300 μm) from the striatum are prepared from wild-type and p11 KO mice as described (S10). The slices are preincubated in Krebs buffer (118 mM NaCl/4.7 mM KCl/1.5 mM […]/1.2 mM KH2PO4/25 mM NaHCO3/11.7 mM glucose/1.3 mM CaCl2) at 30° C. under constant oxygenation (95% O2/5% CO2) for 60 min, with a change of buffer after […]. Slices are treated with vehicle or anpirtoline (50 μM) for 2 min. After drug treatment, the buffer is removed, the slices are rapidly frozen on dry ice, sonicated in 1% SDS and boiled for 10 min. Small aliquots of the homogenate are retained for protein determination by the bicinchoninic acid protein assay method. Equal amounts of protein are processed by using 10% acrylamide gels. Immunoblotting is carried out with a phosphorylation-state-specific rabbit polyclonal antibody against phospho-Ser9-synapsin I, a site that is phosphorylated by PKA and CamKII, or a rabbit polyclonal synapsin antibody that is not phosphorylation-state-specific. Antibody binding is detected by enhanced chemiluminescence and quantified by densitometry, using National Institutes of Health IMAGE 1.63 software. The level of the phosphorylated form of synapsin is normalized to its total level. All data are presented as normalized levels.

thigmotaxis = assay: Open-field analysis (thigmotaxis); format: in vivo; settings: wild-type mice treated long-term with imipramine; anpirtoline 5 mg/kg i.p., 15 min postinjection
Method: Horizontal activities are measured for 30 minutes (results are analyzed every 5 min period) during daytime in a fully computerized, multicage, red and infrared-sensitive motion detection system. The peripheral activity values are divided […] by the total horizontal activity values to determine thigmotaxis. In experiments with anpirtoline (5 mg/kg, i.p.) animals are tested 15 min postinjection. Some anpirtolinetreated mice had received daily injections with imipramine (10 mg/kg, i.p.) for 4 weeks until the day before the experiment.

5-HT1B receptor [5] = target: T2, 5-HT1B receptor; assay: [35S]GTPγS binding in response to 5-HT1B receptor stimulation; format: biochemical; design: Cryostat sections (12 μm thick) are made from p11 KO and wild-type mice; from tissue; host or cells: mouse brain cryostat sections (globus pallidus, substantia nigra); wild-type, p11 KO and p11 transgenic mice; settings: p11 KO mice, 50 μM agonist
Method: as §2

T2 sequence (P28334 whole entry): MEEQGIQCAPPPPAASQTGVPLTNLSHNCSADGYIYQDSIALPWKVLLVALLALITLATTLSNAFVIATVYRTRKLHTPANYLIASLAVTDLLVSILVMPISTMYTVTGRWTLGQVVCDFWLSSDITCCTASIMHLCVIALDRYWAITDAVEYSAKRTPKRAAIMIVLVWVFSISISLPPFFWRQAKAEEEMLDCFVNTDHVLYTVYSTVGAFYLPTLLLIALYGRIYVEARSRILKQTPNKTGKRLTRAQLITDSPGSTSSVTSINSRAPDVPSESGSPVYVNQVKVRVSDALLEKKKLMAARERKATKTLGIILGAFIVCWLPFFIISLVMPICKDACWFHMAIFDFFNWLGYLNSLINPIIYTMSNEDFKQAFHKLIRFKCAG
T1 sequence (P28222 whole entry): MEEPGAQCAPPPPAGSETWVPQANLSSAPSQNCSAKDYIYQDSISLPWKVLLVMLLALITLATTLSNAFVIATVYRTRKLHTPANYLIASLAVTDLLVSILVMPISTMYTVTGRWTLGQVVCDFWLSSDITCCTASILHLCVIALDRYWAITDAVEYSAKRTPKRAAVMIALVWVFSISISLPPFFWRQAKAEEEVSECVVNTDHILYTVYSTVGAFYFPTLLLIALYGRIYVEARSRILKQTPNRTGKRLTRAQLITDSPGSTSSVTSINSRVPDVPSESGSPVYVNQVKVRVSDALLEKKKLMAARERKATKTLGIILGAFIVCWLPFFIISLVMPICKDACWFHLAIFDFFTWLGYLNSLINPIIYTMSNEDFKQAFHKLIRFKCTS

Structure (SMILES): Cc1nc2n(c(=O)c1CCN1CCC(c3noc4cc(F)ccc34)CC1)CCCC2 [risperidone]
p11 mRNA in the forebrain (p11 mRNA): not

f EPSP/population spike (PS) reduction compared with baseline (AMPA receptors; p11 KO mice): 81% | f EPSP/population spike (PS) reduction compared with baseline (AMPA receptors; wild-type mice): 77%
Structure (SMILES): N#Cc1cc2c(cc1[N+](=O)[O-])=NC(=O)C(=O)N=2 [CNQX, 6-cyano-7-nitroquinoxaline-2,3-dione]

Structure (SMILES): NCCc1c[nH]c2ccc(O)cc12 [serotonin, 5-hydroxy-tryptamine]
ability to counteract forskolin-induced cAMP formation (5-HT1B receptor [1]; COS-7 cells transfected with the 5-HT1B receptor, in the presence of cotransfected p11, serotonin (10 µM)): increased | cAMP formation in untransfected COS 7 cells (5-HT1B receptor [1]; control experiments, untransfected cells): does not alter cAMP formation | down-regulation of phospho-Thr202/Tyr204-ERK1/2 levels [2]: loss of ability | amplitude of the fEPSP/PS (5-HT1B receptor [3]): depresses the amplitude | EC50 (5-HT1B receptor [4]): 52 nM | EC50 (5-HT1B receptor [4]; median effective concentration (EC50) to displace bound [125I]iodocyanopindolol, wild-type mice, brain sections): 57 nM

Structure (SMILES): N[C@@H]1C[C@H]1c1ccccc1 (racemic) [tranylcypromine]
p11 mRNA in the forebrain (p11 mRNA): upregulation of p11 mRNA

Structure (SMILES): CC(C)(C)NCC(O)COc1cccc2[nH]c(C#N)c([125I])c12 (centres unmarked) [[^125I]iodocyanopindolol]
binding in substantia nigra pars reticulata (5-HT1B receptor [4]; p11 KO mice): 77.3±5.8 fmol/mg protein | binding in substantia nigra pars reticulata (5-HT1B receptor [4]; wild-type mice): 98.8±6.2 fmol/mg protein

Structure (SMILES): CCCN(CCC)C1CCc2cccc(O)c2C1 (racemic) [8-OH-DPAT, (+/−)-8-hydroxy-2-(di-n-propylamino)tetralin]
[35S]GTP-S binding (5-HT1A receptor; p11 KO mice): 5.0±2.0 optical density units | [35S]GTP-S binding (5-HT1A receptor; wild-type mice): 6.0±2.1 optical density units

Structure (SMILES): CNCCC(Oc1ccc(C(F)(F)F)cc1)c1ccccc1 (centres unmarked) [fluoxetine]
increase in p11 expression in peripheral blood mononuclear cells (PBMC) (p11): more than twofold

Structure (SMILES): CN(C)CCCN1c2ccccc2CCc2ccccc21 [imipramine]
immobility in the tail suspension test (immobility): increased immobility | p11 mRNA in the forebrain (p11 mRNA): upregulation of p11 mRNA

Structure (SMILES): O=C(CCCN1CCC(O)(c2ccc(Cl)cc2)CC1)c1ccc(F)cc1 [haloperidol]
p11 mRNA in the forebrain (p11 mRNA): not

Structure (SMILES): Clc1cccc(SC2CCNCC2)n1 [anpirtoline]
down-regulation of phospho-Thr202/Tyr204-ERK1/2 levels [2]: loss of ability | decrease of phospho-Ser9-synapsin I (phospho-Ser9-synapsin I): loss of ability | thigmotaxis (thigmotaxis): significant reduction in thigmotaxis | immobility in the tail suspension test (immobility): increased immobility | ability to increase [35S]GTP-S binding in globus pallidus (5-HT1B receptor [5]): reduced ability
